Data taken from US20110263526A1, “Nitric Oxide Releasing Prodrugs of Therapeutic Agents” (PIRAMAL LIFE SCIENCES LIMITED, priority 2010, published 2011).
Entries after “also recorded” stand apart in the source; their conditions may differ.

Columns and labels:
TA100 = assay: Ames test: toxicity test using TA100 strain; type: cell-based, Salmonella typhimurium; settings: up to 5000 μg/plate (10-5000 μg/plate)
Excerpt: (§1) AMES test or bacterial reverse mutation test uses five mutant strains (i.e., TA98, TA100, TA1535, TA1537, TA102) of Salmonella typhimurium to test the mutagenicity of chemical substances (Kristien Mortelmans and Errol Zeiger, The Ames Salmonella/microsome mutagenicity assay, Mutation Research 2000, 455, 29-60 and the relevant reference cited therein). These mutants are called his mutants because of their dependence on an external source of histidine to grow. The test also uses one trp mutant strain WP2 uvrA (which needs external supply of tryptophan for its growth) of Escherichia coli (Kristein Mortelmans and Edward S. Riccio, The bacterial tryptophan reverse mutation assay with Escherichia coli WP2, Mutation Research 2000, 455, 61-69 and the relevant references cited therein). If the bacteria are incubated in the presence of a mutagen, a reverse mutation is induced, and the bacteria will grow. However, if the chemical substance is not mutagenic, there will be no reversion and thus no growth. The result is thus obtained in the absence of metabolic activation. Because many chemicals that are poor mutagens become potent mutagens after they have passed through the liver, homogenate of rat liver, called the S9 extract, are added to the bacteria before incubation. The bacteria/S9 mixture is then plated on a medium containing no histidine (use of tryptophan-deficient medium in case of E. coli strain), and the test chemical is placed in the center of the plate. The result is thus obtained in the presence of metabolic activation. A second plate that contains a non-mutagenic solvent as a negative control and a third plate that contains a known mutagen as a positive control are also run simultaneously. All the 3 types of plates (each type of plate, in fact, run simultaneously in triplicate for obtaining statistically significant data) are incubated for 48 hours at 37° C. The above procedure is called the plate incorporation method. The presence of numerous colonies of revertants in the test disk indicates a positive result: that is, the chemical substance is a mutagen (i.e., mutagenic if the increase in revertants is >2 fold for TA98, TA100, TA102 and WP2/uvrA or >3 fold for TA1535 and TA1537). Also, a positive result would be considered reliable when there is a dose-dependent increase in revertants at any two consecutive non-toxic concentrations which can be in the range of 10-5000 μg/plate. The presence of only a few spontaneous revertant colonies indicates a negative result. If a negative or equivocal result is obtained, the pre-incubation method is performed in which the cells are exposed to the test compounds for 30 min before plating. Also, before Ames test is initiated, a toxicity test on the chemical substance is performed using TA100 strain in the concentration range of 10-5000 μg/plate. […] When the test substance is found to be toxic at higher concentration range then the genotoxicity of that material is tested only in the non-toxic lower concentration range.

[1] = system: Salmonella strains TA100, TA98, TA1535, TA1537 and TA102 and Escherichia coli strain WP2 uvrA; assay: AMES genotoxicity assay (bacterial reverse mutation test), six strains; type: cell-based, Salmonella typhimurium; Escherichia coli; settings: up to 5000 μg/plate (10-5000 μg/plate)
Excerpt: as §1

[2] = system: carrageenan-induced rat paw edema; assay: Anti-inflammatory activity in carrageenan-induced rat paw edema model; type: in vivo, male Sprague-Dawley rats; settings: for Anti-inflammatory activity (% Inhibition) @ 3 hours / Anti-inflammatory activity (% Inhibition) @ 5 hours: inhibition of paw edema vs control, Mean ± SEM, n = 8; for Anti-inflammatory activity (% Inhibition) @ 3 hours: oral dose containing 5 mg/kg of naproxen in PEG 400, 3 hours after carrageenan; for Anti-inflammatory activity (% Inhibition) @ 5 hours: oral dose containing 5 mg/kg of naproxen in PEG 400, 5 hours after carrageenan
Procedure: […] […] One hour later, carrageenan (100 μl, 1% w/v) was injected in to their paws. The control group received PEG 400 (1 ml/kg).

rats = assay: Ulcerogenic activity (gastric ulcer lesions) in rats; type: in vivo; settings: dose containing 100 mg/kg of naproxen; for Gastric ulcers (Mean ± SEM) (mm^2) @ 100 mg/kg eq. @ 5 hours: overnight fasted rats, sacrificed after 5 h, total area of lesions; for Ulcer development (in words): rats, 5 h
Procedure: The animals were sacrificed after 5 h of drug administration. The stomachs of the animals treated were separated, perfused with 2% formalin (10 ml), and then a large curvature was excised. The severity of the mucosal damage was assessed on the basis of the size of the observed ulcer lesions in the images captured using a stereomicroscope attached to a digital camera (Stemi 2000, Zeiss, Germany). The Image Pro Plus software (version 5.1) was used to quantify the hemorrhagic/ulcer lesions in pixels and converted into mm^2. The total area of lesions were calculated for each treatment group and the measure of gastric ulcers (Mean±SEM) (mm^2) presented in Table 3.

| SMILES | melting point | Toxicity to TA100 (TA100) | Genotoxicity to 6 strains [1] | other results |
| --- | --- | --- | --- | --- |
| CC(=O)Nc1ccc(OC(=O)c2ccc(COC(=O)OC(C)O[N+](=O)[O-])cc2)cc1 (centres unmarked) [HD5-L20-R1, 4-Acetamidophenyl 4-(((1-(nitrooxy)ethoxy)carbonyloxy)methyl)benzoate] | 149 to 152 °C |  |  |  |
| CCCCc1nc(Cl)c(COC(=O)c2ccc(COC(=O)OC(C)O[N+](=O)[O-])cc2)n1Cc1ccc(-c2ccccc2-c2nnn[nH]2)cc1 (centres unmarked) [HD6-L20-R1, (1-((2′-(1H-Tetrazol-5-yl)biphenyl-4-yl)methyl)-2-butyl-4-chloro-1H-imidazol-5-yl)methyl 4-(((1-(nitrooxy)ethoxy)carbonyloxy)methyl)benzoate] | 107 to 109 °C |  |  |  |
| COc1ccc2cc([C@H](C)C(=O)OCCSSCCOC(=O)OC(C)O[N+](=O)[O-])ccc2c1 (stereo partly drawn) [I-CD1-L1-R1, (2S)-2-((2-((1-(nitrooxy)ethoxy)carbonyloxy)ethyl)disulfanyl)ethyl 2-(6-methoxynaphthalen-2-yl)propanoate] |  | non-toxic to TA100 | non-mutagenic in all the aforementioned six bacterial strains; also recorded: Non-genotoxic |  |
| COc1ccc2cc([C@H](C)C(=O)OC/C=C\COC(=O)OC(C)O[N+](=O)[O-])ccc2c1 (stereo partly drawn) [I-CD1-L2-R1, (2S)-((Z)-4-((1-(nitrooxy)ethoxy)carbonyloxy)but-2-enyl) 2-(6-methoxynaphthalen-2-yl)propanoate] | 76 to 78 °C | non-toxic to TA100 | non-mutagenic in all the aforementioned six bacterial strains; also recorded: Non-genotoxic | Anti-inflammatory activity (in words) ([2]; carrageenan-induced rat paw edema model, dose containing 5 mg/kg of naproxen): anti-inflammatory activity comparable to that of naproxen; Anti-inflammatory activity (% Inhibition) @ 3 hours [2]: 54.27 ± 5.31%; Anti-inflammatory activity (% Inhibition) @ 5 hours [2]: 36.61 ± 8.92%; Gastric ulcers (Mean ± SEM) (mm^2) @ 100 mg/kg eq. @ 5 hours (rats): 0 ± 0 mm^2; Ulcer development (in words) (rats): none of the animals treated with the nitric oxide releasing prodrug of naproxen, I-CD1-L2-R1 showed any signs of development of ulcers |
| COc1ccc2cc([C@H](C)C(=O)OCCCOC(=O)OC(C)O[N+](=O)[O-])ccc2c1 (stereo partly drawn) [I-CD1-L4-R1, (2S)-3-((1-(nitrooxy)ethoxy)carbonyloxy)propyl 2-(6-methoxynaphthalen-2-yl) propanoate] |  | non-toxic to TA100 | non-mutagenic in all the aforementioned six bacterial strains; also recorded: Non-genotoxic |  |
| COc1ccc2cc([C@H](C)C(=O)OCC[S+]([O-])CCOC(=O)OC(C)O[N+](=O)[O-])ccc2c1 (stereo partly drawn) [I-CD1-L16-R1, (2S)-2-(2-((1-(nitrooxy)ethoxy)carbonyloxy)ethylsulfinyl)ethyl 2-(6-methoxynaphthalen-2-yl)propanoate] | 112 to 115 °C | non-toxic to TA100 | non-mutagenic in all the aforementioned six bacterial strains; also recorded: Non-genotoxic |  |
| COc1ccc2cc([C@H](C)C(=O)OCCS(=O)(=O)CCOC(=O)OC(C)O[N+](=O)[O-])ccc2c1 (stereo partly drawn) [I-CD1-L17-R1, (2S)-2-(2-((1-(nitrooxy)ethoxy)carbonyloxy)ethylsulfonyl)ethyl 2-(6-methoxynaphthalen-2-yl)propanoate] | 98 to 100 °C | Non-toxic | Non-mutagenic with TA 1535 |  |
| COc1ccc2cc([C@H](C)C(=O)OCCCSCCCOC(=O)OC(C)O[N+](=O)[O-])ccc2c1 (stereo partly drawn) [I-CD1-L18-R1, (2S)-3-(3-((1-(nitrooxy)ethoxy)carbonyloxy)propylthio)propyl 2-(6-methoxynaphthalen-2-yl)propanoate] |  | non-toxic to TA100 | non-mutagenic in all the aforementioned six bacterial strains; also recorded: Non-genotoxic |  |
| CC(OC(=O)OC/C=C\COC(=O)C[C@H](O)C[C@H](O)CCn1c(-c2ccc(F)cc2)c(-c2ccccc2)c(C(=O)Nc2ccccc2)c1C(C)C)O[N+](=O)[O-] (stereo partly drawn) [I-CD8-L2-R1, (3R,5R)-((Z)-4-((1-(nitrooxy)ethoxy)carbonyloxy)but-2-enyl) 7-(2-(4-fluorophenyl)-5-isopropyl-3-phenyl-4-(phenylcarbamoyl)-1H-pyrrol-1-yl)-3,5-dihydroxyheptanoate] | 56 to 58 °C |  |  |  |
| CCCC1O[C@@H]2C[C@H]3[C@@H]4CCC5=CC(=O)C=C[C@]5(C)[C@H]4[C@@H](O)C[C@]3(C)[C@]2(C(=O)COC(=O)c2ccc(COC(=O)OC(C)O[N+](=O)[O-])cc2)O1 (some centres unmarked) [I-HD4-L20-R1] |  | Non-toxic | Non-mutagenic with TA 1535 |  |
| COc1ccc2cc([C@H](C)C(=O)O)ccc2c1 [Naproxen, naproxen, reference compound] |  |  |  | Anti-inflammatory activity (% Inhibition) @ 3 hours [2]: 65.45 ± 5.84%; Anti-inflammatory activity (% Inhibition) @ 5 hours [2]: 49.09 ± 10.35%; Gastric ulcers (Mean ± SEM) (mm^2) @ 100 mg/kg eq. @ 5 hours (rats): 75 ± 13 mm^2; Ulcer development (in words) (rats): severe haemorrhagic lesions |
